Assay results: US20200399262A1, “COMPOUNDS FOR INHIBITING PROTEIN DEGRADATION AND METHODS OF USE THEREOF IN THE TREATMENT OF CANCER” (PI Therapeutics Ltd, priority 2018, published 2020)

Assays:
SW620 xenograft = experiment: SW620 colorectal flank xenograft in nude mice; format: in vivo; settings: 8 mg/kg IV, TIW for 21 days
Text: FIG. 6A-6D show the evaluated in-vivo efficacy of Compound AA in a colorectal mouse flank xenograft models (HCT116, SW620). […] HCT-116 or SW620 cells (5×10^6 cells/mouse) were implanted in the rear flank of mail mice (6 weeks of age at the time of tumor implantation). On Day 20-23, mice were randomized for equivalent distribution of tumor volumes to treatment groups (n=5/group) and treated IV with vehicle, Compound AA (FIG. 6A, FIG. 6B) TIW for 21 days. Data are presented as mean tumor volume±SD. Body weight % changes in treated animals observed at end point (FIG. 6C, FIG. 6D). Animal xenograft models. MM1.S, HCT-116, SW620 cell lines were purchased from ATCC and used for xenograft model. The cells were cultured in RPMI medium (Sigma-Aldrich) supplemented with 10% fetal bovine serum (FBS) and divided for up to 5 passages. Shortly prior to injection, cell suspension was mixed with Matrigel at 1:[…]) and injected subcutaneously to the rear flank area of male nude athymic 6 weeks old mice to obtain administration of 5×10^6 cells/animal. On day 20-23, when tumor volume reached 100-150 mm^3, mice were randomized for equivalent distribution of tumor volumes to treatment groups (n=5/group) and treated via intravenous injection.

MDA-MB-468 = experiment: NCI60 screen cytotoxicity; format: cell-based; settings: Homo sapiens, Breast cancer, read-out: Compound B1 EC50
BT-549 = experiment: NCI60 screen cytotoxicity; format: cell-based; settings: Homo sapiens, Breast cancer, read-out: Compound B1 EC50
HS-578T = experiment: NCI60 screen cytotoxicity; format: cell-based; settings: Homo sapiens, Breast cancer, read-out: Compound B1 EC50
MCF-7 = experiment: NCI60 screen cytotoxicity; format: cell-based; settings: Homo sapiens, MCF7, Breast cancer, read-out: Compound B1 EC50
KM-12 = experiment: NCI60 screen cytotoxicity; format: cell-based; settings: Homo sapiens, KM12, Colon cancer, read-out: Compound B1 EC50
CCRF-CEM = experiment: NCI60 screen cytotoxicity; format: cell-based; settings: Homo sapiens, Leukemia, read-out: Compound B1 EC50
MOLT-4 = experiment: NCI60 screen cytotoxicity; format: cell-based; settings: Homo sapiens, Leukemia, read-out: Compound B1 EC50
HL-60 = experiment: NCI60 screen cytotoxicity; format: cell-based; settings: Homo sapiens, Leukemia, read-out: Compound B1 EC50
HOP-62 = experiment: NCI60 screen cytotoxicity; format: cell-based; settings: Homo sapiens, Lung cancer, read-out: Compound B1 EC50
NCI-H23 = experiment: NCI60 screen cytotoxicity; format: cell-based; settings: Homo sapiens, Lung cancer, read-out: Compound B1 EC50
HOP-92 = experiment: NCI60 screen cytotoxicity; format: cell-based; settings: Homo sapiens, Lung cancer, read-out: Compound B1 EC50
SK-OV-3 = experiment: NCI60 screen cytotoxicity; format: cell-based; settings: Homo sapiens, Ovarian cancer, read-out: Compound B1 EC50
IGR-OV1 = experiment: NCI60 screen cytotoxicity; format: cell-based; settings: Homo sapiens, IGROV-1, Ovarian cancer, read-out: Compound B1 EC50
TK-10 = experiment: NCI60 screen cytotoxicity; format: cell-based; settings: Homo sapiens, Renal cancer, read-out: Compound B1 EC50
DU-145 = experiment: NCI60 screen cytotoxicity; format: cell-based; settings: Homo sapiens, Prostate cancer, read-out: Compound B1 EC50
LOX IMVI = experiment: NCI60 screen cytotoxicity; format: cell-based; settings: Homo sapiens, Melanoma, read-out: Compound B1 EC50
MALME-3M = experiment: NCI60 screen cytotoxicity; format: cell-based; settings: Homo sapiens, Melanoma, read-out: Compound B1 EC50
M14 = experiment: NCI60 screen cytotoxicity; format: cell-based; settings: Homo sapiens, Melanoma, read-out: Compound B1 EC50
MDA-MB-435 = experiment: NCI60 screen cytotoxicity; format: cell-based; settings: Homo sapiens, Melanoma, read-out: Compound B1 EC50
SK-MEL-2 = experiment: NCI60 screen cytotoxicity; format: cell-based; settings: Homo sapiens, Melanoma, read-out: Compound B1 EC50
SK-MEL-5 = experiment: NCI60 screen cytotoxicity; format: cell-based; settings: Homo sapiens, Melanoma, read-out: Compound B1 EC50
UACC-257 = experiment: NCI60 screen cytotoxicity; format: cell-based; settings: Homo sapiens, Melanoma, read-out: Compound B1 EC50
SF-268 = experiment: NCI60 screen cytotoxicity; format: cell-based; settings: Homo sapiens, CNS, read-out: Compound B1 EC50
SF-295 = experiment: NCI60 screen cytotoxicity; format: cell-based; settings: Homo sapiens, CNS, read-out: Compound B1 EC50
MM1.S = experiment: Cell viability, ATPlite 1-step, MM cell lines; format: cell-based; settings: Homo sapiens; MM1.S MM cell line; 48 hours; read-out: Compound EC50
Procedure: Cell Viability. The assay was performed only when cell viability was ≥90%. Cells were seeded in 96-well white clear bottom plates at concentration of 100,000 cells/mL and treated with serially diluted compounds or vehicle (DMSO) control in triplicates for 48 hours (h). Cell viability was determined using the ATPlite 1-step assay system (PerkinElmer). The method was based on the production of light caused by the reaction of ATP, which was a marker for cell viability. […] were added to the plates which were read in a plate reader for luminescence. The emitted light is proportional to the ATP concentration. Viability was calculated as the percent of viable cells from control vehicle-treated cells. EC50 was calculated using Prism software.
Potency of compounds were assessed by viability assay.

[1] = test system: autophagic vacuoles in MM1.S cells; experiment: Autophagy quantification with CYTO-ID dye, flow cytometry; format: cell-based; settings: 0.2 μM, 5 hours, vs vehicle
Procedure: MM1.S cells were treated with 0.2 μM Compound B1 or vehicle (DMSO) for 5 h. Detection of autophagy vesicles was done by CYTO-ID® green autophagy dye that selectively labels autophagic vacuoles. The samples were analyzed using flow cytometer and the data were plotted on histogram: cell counts vs. FITC fluorescence intensity.
Autophagy Quantification: Quantification of autophagosomes were done with CytoID (ENZO). CYTO-ID® Autophagy Detection Kit measures autophagic vacuoles and monitors autophagic flux in live cells using a dye that selectively labels autophagic vacuoles. The probe is a cationic amphiphilic tracer dye that rapidly partitions into cells in a similar manner as drugs that induce phospholipidosis. MM1.S cells were treated with Compound B1 or vehicle for 5 hours. Following treatment period the cells were harvested and stained with CytoID dye according to manufacturer instructions. Autophagosomes were analyzed and quantified using flow cytometer (Miltenyi). Data of cell counts were plotted as FITC (FL1) fluorescence intensity.

CN(C)CCCS(=O)(=O)N1C/C(=C\c2ccc(C#N)cc2)C(=O)/C(=C/c2ccc(C#N)cc2)C1 [Compound AA]
Animal body weight (SW620 xenograft): not considerably affected
tumor growth compared to vehicle control (SW620 xenograft): significantly inhibited tumor growth

CN(C)CC(=O)NCC(=O)N1C/C(=C\c2ccc(C#N)cc2)C(=O)/C(=C/c2ccc(C#N)cc2)C1 [Compound B1]
EC50 (MDA-MB-468): < 300 nM
EC50 (BT-549): < 300 nM
EC50 (HS-578T): 300 to 1000 nM
EC50 (MCF-7): 300 to 1000 nM
EC50 (KM-12): < 300 nM
EC50 (CCRF-CEM): < 300 nM
EC50 (MOLT-4): < 300 nM
EC50 (HL-60): < 300 nM
EC50 (HOP-62): < 300 nM
EC50 (NCI-H23): < 300 nM
EC50 (HOP-92): 300 to 1000 nM
EC50 (SK-OV-3): < 300 nM
EC50 (IGR-OV1): < 300 nM
EC50 (TK-10): 300 to 1000 nM
EC50 (DU-145): < 300 nM
EC50 (LOX IMVI): < 300 nM
EC50 (MALME-3M): < 300 nM
EC50 (M14): < 300 nM
EC50 (MDA-MB-435): < 300 nM
EC50 (SK-MEL-2): < 300 nM
EC50 (SK-MEL-5): 300 to 1000 nM
EC50 (UACC-257): 300 to 1000 nM
EC50 (SF-268): < 300 nM
EC50 (SF-295): < 300 nM
EC50 (MM1.S): < 300 nM
autophagosomal vesicles (CYTO-ID fluorescence) [1]: significantly lower fluorescent dye then vehicle treated cells
